Here are results for 10 compounds from US11407736B2 (priority 2019, dated 2022).

One may read the pIC50 as the IC50 on a negative log10 scale, so that one unit is a factor of ten. For orientation: Kp means tissue or fluid exposure divided by exposure in the circulation.

The target of data set [1] is RIPK1 (Homo sapiens (Human), UniProt Q13546). As to the kind of experiment: RIPK1 ADP-Glo biochemical kinase assay. To be noted: read-out: RIPK1 ADP-Glo Kinase (IC50). As for the experimental part: The final reaction volume was 5.0ul.
Sequence of RIPK1 (Q13546 whole entry, species assumed): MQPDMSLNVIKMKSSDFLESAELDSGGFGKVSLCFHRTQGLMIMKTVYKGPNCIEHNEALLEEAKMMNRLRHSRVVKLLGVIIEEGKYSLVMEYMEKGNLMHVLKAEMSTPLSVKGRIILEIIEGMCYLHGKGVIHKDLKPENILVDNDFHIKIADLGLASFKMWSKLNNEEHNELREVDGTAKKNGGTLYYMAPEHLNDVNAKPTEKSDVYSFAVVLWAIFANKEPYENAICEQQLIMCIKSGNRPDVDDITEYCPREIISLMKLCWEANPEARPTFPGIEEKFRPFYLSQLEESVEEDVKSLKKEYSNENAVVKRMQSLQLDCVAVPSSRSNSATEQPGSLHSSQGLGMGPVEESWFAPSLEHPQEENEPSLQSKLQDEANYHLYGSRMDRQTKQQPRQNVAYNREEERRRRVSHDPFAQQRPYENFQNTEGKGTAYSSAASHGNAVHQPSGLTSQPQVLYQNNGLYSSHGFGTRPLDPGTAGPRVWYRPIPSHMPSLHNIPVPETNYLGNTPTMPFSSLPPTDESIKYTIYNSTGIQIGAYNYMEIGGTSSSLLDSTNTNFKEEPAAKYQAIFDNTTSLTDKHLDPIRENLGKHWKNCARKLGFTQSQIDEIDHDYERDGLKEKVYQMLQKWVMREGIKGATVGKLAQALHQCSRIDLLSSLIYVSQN
Adding 5 μl of ADP-Glo™ terminated the reaction.

Data set [2] relates to L929 cells. Briefly: L929 cell necroptosis assay (TNFa + zVAD, CellTiter-Glo). In kind it is cell-based, murine. Put shortly: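 Necroptosis was read as CellTiter-Glo luminescence 18 hours after TNFa stimulation at 37° C, 5% CO2. Prior to that, L929 cells (10K/well, plated 18 h) received fresh medium with 40 uM zVAD-fmk plus 4-fold serially diluted compound.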
(Cellular ATP, detected with luciferase, serves as a proxy for viable cell number.)

For data set [3], the system named is U937 cells. As to the kind of experiment: U937 cell necroptosis assay (TNFa + zVAD, CellTiter-Glo). The class given is cell-based, human. To be noted: Homo sapiens. Put shortly: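 Necroptosis was induced with TNFa at 2 ng/mL final for 18 h at 37 °C, following 1 h compound pre-incubation in the presence of zVAD-fmk (60 uM for U937 plating medium, 40 uM for L929 medium). Luminescent CellTiter-Glo signal gave relative cell survival.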

The nature of data set [4]: in vivo pharmacokinetics, plasma and brain exposure. To be noted: for Kp: rodents.
Description: Brain penetration may be assessed by evaluating free brain/plasma ratio (Bu/Pu) as measured in vivo pharmacokinetic studies in rodents.
The subject of data set [5] is TNF-alpha induced hypothermia. To be noted: dose of 30 mg/kg, according to WO 2014/125444; cited from earlier work.
The mark [6] stands for this setting: U-937, read-out: U937 Zvad TNF CTG Recovery, U937, TNFa + zVAD (IC50), U937 cells, TNFa + zVAD.
Setting [7] is: Mus musculus, L929, L929 cells, TNFa + zVAD, read-out: L929-CTG-recovery, L929, TNFa + zVAD (IC50).
[8] abbreviates: U-937, U937 cells, TNFa + zVAD, read-out: U937 Zvad TNF CTG Recovery, U937, TNFa + zVAD (IC50).

pIC50: −log10 of the molar value. Like-named read-outs stand apart in the source and are kept apart here.

Take `CN1C(=O)[C@@H](NC(=O)c2cc(Oc3ccccc3)ccn2)COc2ccc(C#CC(C)(C)N)cc21` [Compound I-139, (S)—N-(7-(3-amino-3-methylbut-1-yn-1-yl)-5-methyl-4-oxo-2,3,4,5-tetrahydrobenzo[b][1,4]oxazepin-3-yl)-4-phenoxypicolinamide]: the pIC50 in data set [1] was 7.67; in data set [2] (read-out: L929-CTG-recovery, L929, TNFa + zVAD (IC50), L929 cells, TNFa + zVAD), 6.27; in data set [3] (setting [6]), 8.11. Besides, the “BRAIN AUC0-6” value in data set [4] amounted to 1100. This compound showed a Kp in data set [4] (brain/plasma) of 1.29.

With `CN1C(=O)[C@@H](NC(=O)c2cc(Oc3ccccc3)ccn2)COc2ccc(C#CC3(C)COC3)cc21` [Compound I-127, (S)—N-(5-methyl-7-((3-methyloxetan-3-yl)ethynyl)-4-oxo-2,3,4,5-tetrahydrobenzo[b][1,4]oxazepin-3-yl)-4-phenoxypicolinamide], the pIC50 in data set [1] is 7.53; in data set [2] (Mus musculus, L929, read-out: L929-CTG-recovery, L929, TNFa + zVAD (IC50), L929 cells, TNFa + zVAD) it was 7.39; in data set [3] (setting [6]) it was 9.52. In addition, the “BRAIN AUC0-6” value in data set [4] is on record as 160. Further, in data set [4] (brain/plasma), the Kp came to 0.98.

For `CN1C(=O)C(NC(=O)n2cc(Cc3ccccc3)cn2)CCc2ccc(N3CC4(CCOCC4)C3)cc21` (racemic) [Compound I-182, (±)-4-Benzyl-N-(1-methyl-2-oxo-8-(7-oxa-2-azaspiro[3.5]nonan-2-yl)-2,3,4,5-tetrahydro-1H-benzo[b]azepin-3-yl)-1-pyrazole-1-carboxamide], the “BRAIN AUC0-6” value in data set [4] is given as 157. Moreover, in data set [4] (in vivo), the Kp came out at 0.56.

On to `CN1C(=O)[C@@H](NC(=O)n2cc(Cc3ccc(F)cc3)cn2)COc2ccc(N3CC4(CCOCC4)C3)cc21` [Compound I-184, (S)-4-(4-fluorobenzyl)-N-(5-methyl-4-oxo-7-(7-oxa-2-azaspiro[3.5]nonan-2-yl)-2,3,4,5-tetrahydrobenzo[b][1,4]oxazepin-3-yl)-1H-pyrazole-1-carboxamide], for which the “BRAIN AUC0-6” value in data set [4] came out at 731. For the same compound, the partition ratio (Kp) in data set [4] (in vivo) was found to be 0.93.

For `Cc1cccc(C#Cc2ccc3c(c2)N(C)C(=O)[C@@H](NC(=O)n2cc(Cc4ccc(F)cc4)cn2)CO3)n1` [Compound I-183, (S)-4-(4-fluorobenzyl)-N-(5-methyl-7-((6-methylpyridin-2-yl)ethynyl)-4-oxo-2,3,4,5-tetrahydrobenzo[b][1,4]oxazepin-3-yl)-1H-pyrazole-1-carboxamide], the “BRAIN AUC0-6” value in data set [4] stood at 326. The Kp in data set [4] (brain/plasma) turned out to be 0.9.

Regarding `CN1C(=O)[C@@H](NC(=O)c2nn(Cc3ccccc3)cc2F)COc2ccc(N3CCC4(CCOCC4)C3)cc21` [Compound I-181, (S)-1-Benzyl-4-fluoro-N-(5-methyl-4-oxo-7-(8-oxa-2-azaspiro[4.5]decan-2-yl)-2,3,4,5-tetrahydrobenzo[b][1,4]oxazepin-3-yl)-1H-pyrazole-3-carboxamide], the “BRAIN AUC0-6” value in data set [4] was 456. The compound also returned a concentration ratio (Kp) in data set [4] (in vivo) of 0.46.

Take `COC1(C#Cc2ccc3c(c2)N(C)C(=O)[C@@H](NC(=O)c2cc(Oc4ccccc4)ccn2)CO3)CN(C)C1` [Compound I-155, (S)—N-(7-((3-methoxy-1-methylazetidin-3-yl)ethynyl)-5-methyl-4-oxo-2,3,4,5-tetrahydrobenzo[b][1,4]oxazepin-3-yl)-4-phenoxypicolinamide]: the pIC50 was 7.61 in data set [1], 6.50 in data set [2] (setting [7]) and 8.89 in data set [3] (setting [8]). Moreover, the “BRAIN AUC0-6” value in data set [4] came to 373. Also, the concentration ratio (Kp) in data set [4] (brain/plasma) is 1.7.

As to `CN1C(=O)[C@@H](NC(=O)c2nnc(Cc3ccccc3)[nH]2)COc2ccccc21` [(S)-5-benzyl-N-(5-methyl-4-oxo-2,3,4,5-tetrahydrobenzo[b][1,4]oxazepin-3-yl)-4H-1,2,4-triazole-3-carboxamide], the “inhibition of TNF-alpha induced hypothermia” value in data set [5] is on record as 93%.

On to `CN1C(=O)[C@@H](NC(=O)n2cc(Cc3ccc(F)cc3)cn2)COc2ccc(C#CC3(C)COC3)cc21` [Compound I-180, (S)-4-(4-fluorobenzyl)-N-(5-methyl-7-((3-methyloxetan-3-yl)ethynyl)-4-oxo-2,3,4,5-tetrahydrobenzo[b][1,4]oxazepin-3-yl)-1H-pyrazole-1-carboxamide], for which the “BRAIN AUC0-6” value in data set [4] is 251. For the same compound, the partition ratio (Kp) in data set [4] (brain/plasma) worked out at 2.44.

Take `CN1C(=O)[C@@H](NC(=O)c2cc(Oc3ccc(F)cc3)ccn2)COc2ccc(C#CC3(O)COC3)cc21` [Compound I-111, (S)-4-(4-fluorophenoxy)-N-(7-((3-hydroxyoxetan-3-yl)ethynyl)-5-methyl-4-oxo-2,3,4,5-tetrahydrobenzo[b][1,4]oxazepin-3-yl)picolinamide]: the values for the pIC50 in data set [1], in data set [2] (setting [7]) and in data set [3] (setting [8]) were 7.66, 7.00 and 8.51, respectively.
